Results on 27 molecules are retold here after PubChem BioAssay AID449762 (Southern Research Specialized Biocontainment Screening …, 2010).

What is called IC50 is the concentration that inhibits the measured activity by half. For orientation: IC90 means the concentration at which the effect reaches the 90% level. Lower therefore signals greater potency.

The assay has as its system M. tuberculosis H37Rv growth inhibition, 7H9 media. Kind of assay: M. tuberculosis growth inhibition, HTS (AID 449762).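 As to all read-outs here: bacterial growth assessed after seven days of incubation.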 As to conditions: for IC90: measured here: IC90 growth inhibition.

Inconclusive results are not listed.

As for `O=C1/C(=C/Nc2ccc3c(c2)OCO3)CCc2ccccc21`, the IC50 was 72.8 µM and the IC90 was above 100 µM.

`O=C1C=C(c2ccc3[nH]ccc3c2)C[C@@H](c2ccc(Cl)cc2)C1`: the IC50 is 75.3 µM and the IC90 is above 100 µM.

`Cc1ccc(C(=O)C[n+]2cc(-c3ccc(C)cc3)n3c2CCCCC3)cc1`: the IC50 is 15.3 µM and the IC90 turned out to be 19.8 µM.

`CC1=C(C)C(=O)C(CCCCC#CCCCC#CCO)=C(C)C1=O`: the concentration for half-maximal inhibition (IC50) is 10.9 µM and the IC90 came to 18.7 µM.

With `C=C1CCC[C@]2(C)C[C@H]3OC(=O)C(CNC(C)CCCC(C)C)[C@H]3CC12` (some centres undefined), the IC50 was 22.4 µM and the 90% effect concentration (IC90) was found to be 24.2 µM.

In the case of `Cc1cc(/C=C2\SC(=Nc3ccc(F)cc3)NC2=O)c(C)n1-c1ccc(S(N)(=O)=O)cc1`, the IC50 is 22.4 µM and the IC90 worked out at 25.5 µM.

Take `Fc1nc(F)c(F)c(NCCCNc2c(F)c(F)nc(F)c2F)c1F`: the IC50 was 37.7 µM and the IC90 was above 100 µM.

Take `C(C#CCCCCCCCCC[n+]1ccccc1)#CCCCCCCCCC[n+]1ccccc1`: the IC50 is 2.8 µM and the IC90 was determined as 4.43 µM.

Consider `Cc1n[nH]c(=S)n1/N=C/c1cccc(OCc2ccccc2)c1`, for which the IC50 was 75.4 µM and the IC90 is above 100 µM.

Consider `c1cc2c3c(cccc3c1)NC1(CCC3(CC1)Nc1cccc4cccc(c14)N3)N2`, for which the IC50 was 65.5 µM and the IC90 was above 100 µM.

As for `COc1ccc(N(CC(=O)Nc2cc(Cl)ccc2C)S(=O)(=O)c2c(C)n[nH]c2C)cc1`, the half-inhibitory concentration (IC50) was 45.8 µM and the IC90 came out at 51.2 µM.

For the molecule `CCCCCCCCCCC[N+](C)(C)CC/C=C1/c2ccccc2Sc2ccc(Cl)cc21`, the IC50 was 7.04 µM and the IC90 is 8.09 µM.

On to `S=C(Nc1ccc(Cl)cc1)Nc1cccc2cnccc12`, for which the half-maximal inhibitory concentration (IC50) is 4.42 µM and the IC90 came to 5.24 µM.

On to `CC1(C)CC(NC(=O)c2ccc(Cl)c(S(=O)(=O)N(Cc3ccccc3)c3ccccc3)c2)CC(C)(C)N1`, for which the IC50 is 24.5 µM and the IC90 worked out at 27.9 µM.

As to `CCc1ccc(Nc2n[n+](C)c(-c3ccncc3)s2)cc1`, the IC50 was 45.3 µM and the IC90 is 51.3 µM.

For `Brc1ccc(N/N=C(/N=Nc2nn[nH]n2)c2ccccc2)cc1`, the IC50 was 14.2 µM and the IC90 worked out at 22.1 µM.

Turning to `O=C(Nc1ccc(Cl)cc1)N1CCN(c2ccc3nnc(-c4ccc(F)cc4)n3n2)CC1`, the IC50 was 13.8 µM and the IC90 came out at 26.4 µM.

On to `COc1ccc(N2CCN(C(=O)c3cc4c(C)nc5ccccc5c4o3)CC2)cc1`, for which the IC50 is 18.5 µM and the IC90 is 32.5 µM.

For the molecule `O=C(c1cccc(-c2ccco2)c1)N1CCCC(N2CCN(c3ccc(F)cc3)CC2)C1` (centres undefined), the IC50 was 52.5 µM and the IC90 came to 78.8 µM.

In the case of `O=C(CCl)Nc1sccc1C(=O)c1ccccc1`, the IC50 was below 0.2 µM and the IC90 was 1.22 µM.

On to `CCCCn1cnc2c(c(-c3ccccc3)c(-c3ccccc3)n2Cc2ccco2)c1=N`, for which the IC50 was 75.3 µM and the 90% effect concentration (IC90) was 97.4 µM.

Consider `CCn1c2ccccc2c2cc(CNCc3ccc(OC)cc3OC)ccc21`, for which the IC50 is 12.2 µM and the IC90 worked out at 14.1 µM.

In the case of `CC(C)(O)C#Cc1ccc(C(=O)Nc2ccc3c(c2)OCO3)s1`, the IC50 is 1.63 µM and the 90% effect concentration (IC90) is above 100 µM.

As to `C=C[C@]1(C)C[C@@H](OC(=O)CSCCN(CC)CC)[C@]2(C)C(C)CC[C@]3(CCC(=O)[C@H]32)[C@@H](C)[C@@H]1O` (some centres undefined), the IC50 was 4.03 µM and the 90% effect concentration (IC90) was found to be 7.7 µM.

As for `O=C(OCC(=O)N1CCN(C(=O)c2ccco2)CC1)c1cc(-c2cccc(Br)c2)nc2ccccc12`, the half-inhibitory concentration (IC50) was 95.2 µM and the IC90 is above 100 µM.

As for `Cc1ccc(F)cc1CNC(=O)c1cc(COc2ccc3ncccc3c2)on1`, the half-maximal inhibitory concentration (IC50) was 29.2 µM and the IC90 is above 100 µM.

Regarding `CSCCC1NC(=O)N(CC(=O)N2N=C(c3ccc(Cl)cc3)CC2c2ccco2)C1=O` (centres undefined), the IC50 is 10.5 µM and the IC90 amounted to 16 µM.
